# Measured values: paper PMC11555526, “Development of 2-Aminoadenine-Based Proteolysis-Targeting Chimeras (PROTACs) as Novel Potent Degraders of Monopolar Spindle 1 and Aurora Kinases” (ACS Pharmacology & Translational Science, 2024)
# Where “and” joins values, the source holds several entries; their conditions need not be identical. Equal entries are not always repeated.
# How the values were obtained:
# [1] = target: T1, AURKA (MV4-11^AURKA-HiBiT cells) (Homo sapiens, UniProt O14965); assay: HiBiT assay, AURKA degradation; type: cell-based; set-up: key to Dmax (maximal degradation) AURKA: compounds with degradation less than 15% reported as “inactive”; conditions: 6 h treatment, MV4-11^AURKA-HiBiT cells; for DC50: read-out: DC50 (half-maximal degradation concentration) AURKA
# T1 construct: expressed in transfected cells; host or cells: MV4-11, lentiviral transduction
# T1 sequence (O14965 1-403): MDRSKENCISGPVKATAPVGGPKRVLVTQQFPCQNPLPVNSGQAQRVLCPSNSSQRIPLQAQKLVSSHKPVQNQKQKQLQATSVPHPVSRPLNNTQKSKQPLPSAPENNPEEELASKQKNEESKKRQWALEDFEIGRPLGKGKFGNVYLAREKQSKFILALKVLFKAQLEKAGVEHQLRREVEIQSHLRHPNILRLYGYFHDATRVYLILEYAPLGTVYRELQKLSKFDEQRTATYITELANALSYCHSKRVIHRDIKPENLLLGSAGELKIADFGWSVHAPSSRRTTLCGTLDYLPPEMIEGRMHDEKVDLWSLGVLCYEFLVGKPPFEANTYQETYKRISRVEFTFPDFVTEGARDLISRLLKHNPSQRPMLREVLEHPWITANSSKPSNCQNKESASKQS
# Procedure: (§1) The effects of the synthesized compounds on AURKA, AURKB, and TTK mitotic kinases were then assessed in cellular systems. For this, HiBiT cell lines were generated for all three mitotic kinases. A small 11 amino acid peptide fragment of luciferase (HiBiT) was fused to the coding sequence of the proteins and stably transduced in the MV4-11 cell line (MV4-11^AURKA-HiBiT, MV4-11^AURKB-HiBiT, and MV4-11^HiBiT-TTK).
# (§2) The stable cell lines MV4-11^AURKA-HiBiT, MV4-11^AURKB-HiBiT, and MV4-11^HiBiT-TTK cells were generated by lentiviral infection. Lentivirus was produced using the respective HiBiT vector, plasmids psPAX2, and pMD2.G in HEK293 cells. The virus supernatant was filtered and MV4-11 cells were doubly infected with the supernatant. The cells were selected after 48 h of infection until the control cells were dead to get the stable cell line.
# (§3) The cells stably expressing HiBiT-tagged protein were seeded into 96-well plates and treated with serial dilutions of compounds for the indicated time points. At the end point, the assay was performed using the Nano-Glo HiBiT Lytic Detection System (Promega) according to the manufacturer’s instruction. Luminescence was measured on a GloMax 96 Microplate Luminometer (Promega) or a Tecan Spark Multiplate reader (Tecan). DC50 was calculated using concentrations showing sigmoidal behavior with the dose–response (four parameters) equation in Prism (GraphPad).
# [2] = tested on: MV4-11 cells (naive); assay: alamarBlue cell viability assay; type: cell-based, human; conditions: 72 h treatment, MV4-11 cells (naive); for EC50: read-out: EC50 (concentration that decreases cell viability by 50%)
# Procedure: Finally, to study the effect of the compounds on cancer cell survival, MV4-11 cells were treated with various concentrations of the chimeras and the cell viability was assessed after 72 h. […] As opposed to the parent inhibitor MPS1-IN-3, its derivatives except 40 were not cytotoxic (Figure S7B, Table 5). […] In addition, most of the SF1-based derivatives affected the viability of MV4-11 cells in nanomolar concentrations (Table 5).
# For the alamarBlue cell viability assay, cells were seeded in 96-well plates and treated with indicated concentrations of the compounds or vehicle. A few hours before the experimental end point (72 h, unless otherwise stated), the cells were incubated with the alamarBlue reagent. Finally, fluorescence (excitation: 550 nm and emission: 600 nm) or absorbance (570 nm with reference at 600 nm) was measured on a Tecan Spark Multiplate reader (Tecan).
# [3] = target: T2, TTK (MV4-11^HiBiT-TTK cells) (Homo sapiens, UniProt P33981); assay: HiBiT assay, TTK degradation; type: cell-based; set-up: key to Dmax (maximal degradation) TTK: compounds with degradation less than 15% reported as “inactive”; conditions: 6 h treatment, MV4-11^HiBiT-TTK cells; for DC50: read-out: DC50 (half-maximal degradation concentration) TTK
# T2 construct: expressed in transfected cells; host or cells: MV4-11, lentiviral transduction (pRRL-PGK-HiBiT entry vector)
# T2 sequence (P33981 1-857): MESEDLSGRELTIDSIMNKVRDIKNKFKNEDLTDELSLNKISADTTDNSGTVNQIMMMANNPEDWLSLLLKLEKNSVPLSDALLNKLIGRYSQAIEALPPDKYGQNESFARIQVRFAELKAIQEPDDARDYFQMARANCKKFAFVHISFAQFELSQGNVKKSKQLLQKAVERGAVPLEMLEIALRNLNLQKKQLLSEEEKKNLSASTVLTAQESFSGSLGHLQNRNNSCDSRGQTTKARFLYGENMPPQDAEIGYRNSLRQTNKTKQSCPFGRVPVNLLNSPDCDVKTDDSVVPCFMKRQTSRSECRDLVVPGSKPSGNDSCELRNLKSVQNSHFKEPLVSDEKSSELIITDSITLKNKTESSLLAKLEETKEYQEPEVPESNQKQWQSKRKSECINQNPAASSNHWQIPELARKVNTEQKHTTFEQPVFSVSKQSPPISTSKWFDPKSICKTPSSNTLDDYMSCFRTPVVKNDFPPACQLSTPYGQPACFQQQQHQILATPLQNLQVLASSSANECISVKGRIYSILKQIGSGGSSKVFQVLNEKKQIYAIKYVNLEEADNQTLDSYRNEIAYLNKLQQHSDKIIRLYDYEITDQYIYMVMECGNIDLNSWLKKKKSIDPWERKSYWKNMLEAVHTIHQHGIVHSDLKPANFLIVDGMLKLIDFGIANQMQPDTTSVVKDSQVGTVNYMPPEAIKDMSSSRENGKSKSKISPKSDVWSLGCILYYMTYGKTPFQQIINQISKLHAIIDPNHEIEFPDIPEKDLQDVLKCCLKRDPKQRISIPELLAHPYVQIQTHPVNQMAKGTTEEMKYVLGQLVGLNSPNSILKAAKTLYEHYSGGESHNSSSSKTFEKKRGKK
# Procedure: as §1, §2, §3
# [4] = target: T3, AURKB (MV4-11^AURKB-HiBiT cells) (Homo sapiens, UniProt Q96GD4); assay: HiBiT assay, AURKB degradation; type: cell-based; set-up: key to Dmax (maximal degradation) AURKB: compounds with degradation less than 15% reported as “inactive”; conditions: 6 h treatment; for DC50: read-out: DC50 (half-maximal degradation concentration) AURKB
# T3 construct: expressed in transfected cells; host or cells: MV4-11, lentiviral transduction (pRRL-PGK vector)
# Procedure: as §1, §2, §3
# T3 sequence (Q96GD4 1-345 isoform Q96GD4-5): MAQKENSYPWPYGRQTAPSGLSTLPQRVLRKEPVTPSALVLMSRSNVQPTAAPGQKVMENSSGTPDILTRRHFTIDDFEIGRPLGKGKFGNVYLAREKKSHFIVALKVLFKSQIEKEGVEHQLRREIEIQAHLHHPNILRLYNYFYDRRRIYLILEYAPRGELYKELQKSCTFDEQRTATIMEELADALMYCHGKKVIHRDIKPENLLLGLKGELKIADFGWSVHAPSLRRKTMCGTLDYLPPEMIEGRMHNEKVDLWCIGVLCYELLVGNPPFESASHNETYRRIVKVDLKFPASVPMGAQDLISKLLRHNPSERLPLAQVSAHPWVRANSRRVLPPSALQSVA
Dmax (maximal degradation) AURKA [1],DC50 [1],EC50 [2],Dmax (maximal degradation) TTK [3],DC50 [3],Dmax (maximal degradation) AURKB [4],DC50 [4],SMILES,DC50 (half-maximal degradation concentration) AURKB [4],DC50 (half-maximal degradation concentration) AURKA [1],EC50 (concentration that decreases cell viability by 50%) [2],DC50 (half-maximal degradation concentration) TTK [3]
49.10%,17 nM,405 nM,27.20%,468 nM,19.90%,–,CC(C)S(=O)(=O)c1ccccc1Nc1nc(Nc2ccc(N3CCN(C(=O)CCC(=O)NCCNc4cccc5c4C(=O)N(C4CCC(=O)NC4=O)C5=O)CC3)cc2)nc2[nH]cnc12 (centres unmarked) [Compound 30],– (compounds with degradation less than 25% were not calculated and reported as “–”),–,–,–
inactive,–,–,inactive,–,inactive,–,COc1cc(N2CCC(OCC(=O)NCCNc3cccc4c3C(=O)N(C3CCC(=O)NC3=O)C4=O)CC2)ccc1Nc1nc(Nc2ccccc2S(=O)(=O)C(C)C)c2nc[nH]c2n1 (centres unmarked) [Compound 34],– (compounds with degradation less than 25% were not calculated and reported as “–”),– (compounds with degradation less than 25% were not calculated and reported as “–”),— (compounds with decrease of cell viability less than 50% were not calculated and reported as “—”),– (compounds with degradation less than 25% were not calculated and reported as “–”)
inactive,–,–,inactive,–,inactive,–,COc1cc(N2CCC(OCC(=O)NCCCNc3cccc4c3C(=O)N(C3CCC(=O)NC3=O)C4=O)CC2)ccc1Nc1nc(Nc2ccccc2S(=O)(=O)C(C)C)c2nc[nH]c2n1 (centres unmarked) [Compound 35],– (compounds with degradation less than 25% were not calculated and reported as “–”),– (compounds with degradation less than 25% were not calculated and reported as “–”),— (compounds with decrease of cell viability less than 50% were not calculated and reported as “—”),– (compounds with degradation less than 25% were not calculated and reported as “–”)
41.60%,282 nM,836 nM,23.00%,–,43.70%,1680 nM,COc1cc(N2CCC(OCC(=O)N3CCN(c4cccc5c4C(=O)N(C4CCC(=O)NC4=O)C5=O)CC3)CC2)ccc1Nc1nc(Nc2ccccc2S(=O)(=O)C(C)C)c2nc[nH]c2n1 (centres unmarked) [Compound 40],–,–,–,– (compounds with degradation less than 25% were not calculated and reported as “–”)
inactive,–,–,inactive,–,inactive,–,COc1cc(N2CCC(OCC(=O)NCCNC(=O)CCCC(=O)Nc3cccc4c3C(=O)N(C3CCC(=O)NC3=O)C4=O)CC2)ccc1Nc1nc(Nc2ccccc2S(=O)(=O)C(C)C)c2nc[nH]c2n1 (centres unmarked) [Compound 41],– (compounds with degradation less than 25% were not calculated and reported as “–”),– (compounds with degradation less than 25% were not calculated and reported as “–”),— (compounds with decrease of cell viability less than 50% were not calculated and reported as “—”),– (compounds with degradation less than 25% were not calculated and reported as “–”)

# The remaining lines, values behind:
SMILES,Dmax (maximal degradation) AURKA [1],DC50 [1],EC50 [2],Dmax (maximal degradation) TTK [3],DC50 [3],Dmax (maximal degradation) AURKB [4],DC50 [4],DC50 (half-maximal degradation concentration) AURKB [4],DC50 (half-maximal degradation concentration) AURKA [1],EC50 (concentration that decreases cell viability by 50%) [2],DC50 (half-maximal degradation concentration) TTK [3]
COc1cc(N2CCC(OCC(=O)NCCCCNc3cccc4c3C(=O)N(C3CCC(=O)NC3=O)C4=O)CC2)ccc1Nc1nc(Nc2ccccc2S(=O)(=O)C(C)C)c2nc[nH]c2n1 (centres unmarked) [Compound 36],inactive,–,–,inactive,–,inactive,–,– (compounds with degradation less than 25% were not calculated and reported as “–”),– (compounds with degradation less than 25% were not calculated and reported as “–”),— (compounds with decrease of cell viability less than 50% were not calculated and reported as “—”),– (compounds with degradation less than 25% were not calculated and reported as “–”)
COc1cc(N2CCC(OCC(=O)NCCOCCOCCNc3cccc4c3C(=O)N(C3CCC(=O)NC3=O)C4=O)CC2)ccc1Nc1nc(Nc2ccccc2S(=O)(=O)C(C)C)c2nc[nH]c2n1 (centres unmarked) [Compound 38],inactive,–,–,16.10%,–,inactive,–,– (compounds with degradation less than 25% were not calculated and reported as “–”),– (compounds with degradation less than 25% were not calculated and reported as “–”),— (compounds with decrease of cell viability less than 50% were not calculated and reported as “—”),– (compounds with degradation less than 25% were not calculated and reported as “–”)
Cc1ncsc1-c1ccc(CNC(=O)[C@@H]2C[C@@H](O)CN2C(=O)[C@@H](NC(=O)CCCC(=O)N2CCN(c3ccc(Nc4nc(NC5CCCCC5)c5nc[nH]c5n4)cc3)CC2)C(C)(C)C)cc1 [Compound 43],55% and 55.60%,684 nM,584 nM,32.70%,1960 nM,33.80%,2280 nM,–,–,–,–
